Like-named read-outs stand apart in the source and are kept apart here.
Assays:
[1] = system: ubiquinone binding site of complex I (IQ); assay: High-throughput screen: ROS production from ubiquinone binding site of complex I (IQ), isolated skeletal muscle mitochondria; type: biochemical, rat; conditions: percent change in ROS from DMSO controls
[2] = target: T1, flavin binding site of complex I (IF) (Rattus norvegicus, UniProt Q5XIH3); assay: High-throughput screen: ROS production from flavin binding site of complex I (IF); type: biochemical; conditions: percent change in ROS from DMSO controls; for inhibition at 2.5 µM: Table 7, read-out: IF
T1 construct: freshly isolated muscle mitochondria were assayed; from tissue; host or cells: rat skeletal muscle mitochondria (Wistar, Harlan Laboratories)

[3] = target: T2, outer ubiquinone binding site of complex III (IIIQO) (Rattus norvegicus, UniProt P00159+P20788); assay: High-throughput screen: ROS production from outer ubiquinone binding site of complex III (IIIQO); type: biochemical; conditions: for IIIQO: Table 8
T2 construct: freshly isolated muscle mitochondria were assayed; from tissue; host or cells: rat skeletal muscle mitochondria (Wistar, Harlan Laboratories)
Experimental: (§1) Skeletal muscle mitochondria were isolated from 5-8 week old female Wistar rats (Harlan Laboratories). Minced muscle was homogenized in buffer containing bacterial protease Type VIII prior to differential centrifugation to separate mitochondria from other tissue components. Unless otherwise stated, freshly isolated muscle mitochondria were assayed in buffer containing 120 mM KCl, 5 mM HEPES, 1 mM EGTA, 0.3% (w/v) bovine serum albumin. Where indicated, CaCl2 was added to yield a final free concentration of 250 nM calcium at pH 7.0 at 37° C.
Compounds (10 mM in DMSO) were randomly selected from a library of 24,000 compounds obtained from ChemBridge and curated by the lab of Robert Hughes at the Buck Institute. Master screening plates were prepared using a Biomek FX liquid handling workstation (Beckman) to transfer 1 μL of each compound into individual wells on 96-well storage plates (80 compounds per plate). Master plates were sealed with foil and stored at −80° C. Just prior to use, plates were brought to room temperature and diluted 300-fold with standard buffer (13.3X=33.3 μM). To monitor the performance of each assay throughout screening and to provide intra-plate normalization reference points, DMSO negative controls and known mitochondrial inhibitor positive controls were included on each Master compound plate.
(§2) Total amounts of superoxide and H2O2 production were determined fluorometrically as H2O2, without distinguishing between them, in the presence of exogenous superoxide dismutase (25 units/mL final), horseradish peroxidase (1 unit/mL final), and Amplex UltraRed (25 μM final) as described (Affourtit, C. et al. (2012) Measurement of proton leak and electron leak in isolated mitochondria. Methods Mol. Biol. 810: 165-82). Just prior to use, a bulk 3.3X solution was made in standard buffer and distributed into a 2 mL deep well 96-well transfer plate.
To assess the effects of a compound on ROS production from the outer ubiquinone binding site of complex III (IIIQO), Start Solution containing 5 mM succinate, 4 μM rotenone and 2.5 μM antimycin A was distributed into standard 96-well transfer plates. A Biomek FX workstation was programmed to dispense solutions into black 96-well assay plates. Solutions were dispensed to all assay plates in the following order: ROS Detection solution described in Example 3, Mitochondria solution described in Example 1 to a final concentration of 0.1 mg/ml, and Compound dilutions described in Example 2. Duplicate assay plates were made and each was initiated by the addition of 3.3X Start solution containing 5 mM succinate, 4 μM rotenone and 2.5 μM antimycin A. Plates were incubated in the dark at room temperature for 30-40 minutes before acquiring endpoint fluorescence using a Victor 3V plate reader (Perkin Elmer) equipped with 550/590 nm excitation/emission filters.
(§3) The fluorescence values in each well were scaled as the percent change from the intra-plate DMSO controls with the appropriate inhibitor positive controls defined as −100%. Following initial scaling, intra-plate normalized values were subjected to Tukey's two-way median polish to remove row and column dependent positional effects (Malo et al., 2006).

[4] = target: T3, glycerol-3-phosphate dehydrogenase (GPDH) (Rattus norvegicus, UniProt P35571); assay: High-throughput screen: ROS production from glycerol-3-phosphate dehydrogenase (GPDH); type: biochemical; set-up: inhibition: dose or concentration left out as unconfirmed; conditions: for inhibition: Table 7; for inhibition / GPDH: percent change in ROS from DMSO controls; for inhibition at 2.5 µM: Table 6, 25 mM glycerol phosphate, rotenone, antimycin A, malonate, myxothiazol, compounds 2.5 μM, scaled to IQ positive controls, read-out: % Reduction in ROS Production (GPDH)
T3 construct: The activity of GPDH in intact mitochondria (0.3 mg/mL) was measured; from tissue; host or cells: rat skeletal muscle mitochondria (Wistar, Harlan Laboratories)
T3 sequence (P35571 43-727): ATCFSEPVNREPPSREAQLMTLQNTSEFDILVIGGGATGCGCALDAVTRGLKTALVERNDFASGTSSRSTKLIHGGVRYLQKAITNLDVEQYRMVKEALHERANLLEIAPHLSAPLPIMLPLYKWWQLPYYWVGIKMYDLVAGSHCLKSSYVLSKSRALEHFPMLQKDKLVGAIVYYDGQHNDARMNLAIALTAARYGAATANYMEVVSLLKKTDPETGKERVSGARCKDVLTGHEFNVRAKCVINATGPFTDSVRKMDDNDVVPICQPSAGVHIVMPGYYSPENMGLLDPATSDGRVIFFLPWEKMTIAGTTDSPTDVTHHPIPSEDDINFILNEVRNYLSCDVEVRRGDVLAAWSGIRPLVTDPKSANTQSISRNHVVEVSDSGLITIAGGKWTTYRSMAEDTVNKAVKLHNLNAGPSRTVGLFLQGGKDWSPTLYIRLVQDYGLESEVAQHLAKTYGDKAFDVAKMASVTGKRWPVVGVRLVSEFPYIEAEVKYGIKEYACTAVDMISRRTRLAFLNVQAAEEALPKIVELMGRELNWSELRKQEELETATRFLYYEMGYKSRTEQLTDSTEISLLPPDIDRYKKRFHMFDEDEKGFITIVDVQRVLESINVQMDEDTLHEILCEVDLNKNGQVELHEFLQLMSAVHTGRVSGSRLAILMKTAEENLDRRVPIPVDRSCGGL

[5] = system: mitochondrial membrane potential (ΔΨm); assay: Membrane potential (ΔΨm) counterscreen with TMRM; conditions: malate, nigericin
Experimental: Skeletal muscle mitochondria were isolated from 5-8 week old female Wistar rats (Harlan Laboratories). Minced muscle was homogenized in buffer containing bacterial protease Type VIII prior to differential centrifugation to separate mitochondria from other tissue components. Unless otherwise stated, freshly isolated muscle mitochondria were assayed in buffer containing 120 mM KCl, 5 mM HEPES, 1 mM EGTA, 0.3% (w/v) bovine serum albumin. Where indicated, CaCl2 was added to yield a final free concentration of 250 nM calcium at pH 7.0 at 37° C. Total and free calcium concentrations were calculated using the Extended MaxChelator program at http://maxchelator.stanford.edu.
Compounds were manually transferred from the Master Compound Plate to two black 96-well assay plates. A bulk solution was prepared containing the following components (final concentrations) and manually dispensed into the two ΔΨm assay plates: the potentiometric dye TMRM (5 μM), mitochondria (0.2 mg/mL), glutamate (5 mM), malate (5 mM), and nigericin (80 ng/mL).

[6] = target: T4, succinate dehydrogenase/complex II (SDH) (Rattus norvegicus, UniProt P21913+Q641Z9+Q6PCT8+Q920L2); assay: High-throughput screen: ROS production from succinate dehydrogenase/complex II (SDH); type: biochemical; conditions: Table 7; percent change in ROS from DMSO controls
T4 construct: freshly isolated muscle mitochondria were assayed; from tissue; host or cells: rat skeletal muscle mitochondria (Wistar, Harlan Laboratories)
Experimental: as §1
Just prior to use, plates were brought to room temperature and diluted 300-fold with standard buffer (13.3X=33.3 μM). To monitor the performance of each assay throughout screening and to provide intra-plate normalization reference points, DMSO negative controls and known mitochondrial inhibitor positive controls were included on each Master compound plate.
as §2
To assess the effects of a compound on ROS production from succinate dehydrogenase/complex II (SDH), Start Solution containing 15 μM palmitoyl carnitine, 2.5 μM antimycin A and 2 μM myxothiazol was distributed into standard 96-well transfer plates. A Biomek FX workstation was programmed to dispense solutions into black 96-well assay plates. Solutions were dispensed to all assay plates in the following order: ROS Detection solution described in Example 3, Mitochondria solution described in Example 1 to a final concentration of 0.3 mg/ml, and Compound dilutions described in Example 2. Duplicate assay plates were made and each was initiated by the addition of 3.3X Start solution containing 15 μM palmitoyl carnitine, 2.5 μM antimycin A and 2 μM myxothiazol. Plates were incubated in the dark at room temperature for 30-40 minutes before acquiring endpoint fluorescence using a Victor 3V plate reader (Perkin Elmer) equipped with 550/590 nm excitation/emission filters.
as §3

[7] = Table 4, 5 mM succinate, 4 μM rotenone, 2.5 μM antimycin A, compounds 2.5 μM, percent change from DMSO, read-out: % Reduction in ROS production (IIIQO)
[8] = Table 7, percent change in ROS from DMSO controls, read-out: IIIQO
[9] = percent change in ROS from DMSO controls
[10] = Table 9, percent change in ROS from DMSO controls, read-out: IIIQo

T1 sequence (Q5XIH3 21-464 limits assumed, one chain of several): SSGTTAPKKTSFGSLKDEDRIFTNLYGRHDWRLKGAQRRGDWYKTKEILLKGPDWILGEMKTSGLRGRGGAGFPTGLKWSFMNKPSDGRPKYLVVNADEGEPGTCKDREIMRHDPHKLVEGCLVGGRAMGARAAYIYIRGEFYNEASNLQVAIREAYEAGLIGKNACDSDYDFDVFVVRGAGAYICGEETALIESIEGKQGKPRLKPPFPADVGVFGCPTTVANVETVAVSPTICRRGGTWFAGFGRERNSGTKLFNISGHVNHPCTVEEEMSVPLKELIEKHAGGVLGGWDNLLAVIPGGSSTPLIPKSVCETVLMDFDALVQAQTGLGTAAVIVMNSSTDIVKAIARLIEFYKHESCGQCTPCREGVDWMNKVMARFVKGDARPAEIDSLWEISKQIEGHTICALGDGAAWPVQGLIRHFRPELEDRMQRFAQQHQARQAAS
T4 sequence (Q920L2 35-656): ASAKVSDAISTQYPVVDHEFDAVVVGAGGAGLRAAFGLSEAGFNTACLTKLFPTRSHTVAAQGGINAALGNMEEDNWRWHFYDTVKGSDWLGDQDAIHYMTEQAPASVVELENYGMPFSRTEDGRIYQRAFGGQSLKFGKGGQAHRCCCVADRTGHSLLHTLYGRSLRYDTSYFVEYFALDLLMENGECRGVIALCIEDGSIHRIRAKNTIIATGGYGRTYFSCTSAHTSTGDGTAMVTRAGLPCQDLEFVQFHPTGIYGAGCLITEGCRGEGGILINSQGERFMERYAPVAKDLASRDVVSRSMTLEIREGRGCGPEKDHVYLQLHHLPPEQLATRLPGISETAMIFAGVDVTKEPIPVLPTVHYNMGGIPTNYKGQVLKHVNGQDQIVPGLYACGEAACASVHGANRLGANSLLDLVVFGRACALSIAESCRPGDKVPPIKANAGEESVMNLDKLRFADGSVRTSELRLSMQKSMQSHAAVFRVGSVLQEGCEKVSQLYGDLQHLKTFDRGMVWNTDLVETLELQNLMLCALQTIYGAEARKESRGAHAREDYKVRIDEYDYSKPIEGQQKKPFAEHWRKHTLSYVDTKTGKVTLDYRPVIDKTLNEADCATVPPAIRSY
T4 sequence (P21913 31-282): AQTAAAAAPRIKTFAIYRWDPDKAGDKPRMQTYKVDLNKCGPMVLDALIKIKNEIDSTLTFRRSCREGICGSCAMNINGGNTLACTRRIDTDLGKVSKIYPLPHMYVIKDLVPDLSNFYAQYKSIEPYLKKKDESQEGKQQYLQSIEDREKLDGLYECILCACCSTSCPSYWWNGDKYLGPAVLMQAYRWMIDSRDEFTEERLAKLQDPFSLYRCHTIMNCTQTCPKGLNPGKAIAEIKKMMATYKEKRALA
T4 sequence (Q641Z9 30-169 limits assumed): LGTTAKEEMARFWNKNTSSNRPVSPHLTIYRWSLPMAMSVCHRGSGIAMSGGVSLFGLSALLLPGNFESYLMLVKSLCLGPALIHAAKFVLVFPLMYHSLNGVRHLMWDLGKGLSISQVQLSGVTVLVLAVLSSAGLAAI
T4 sequence (Q6PCT8 57-159): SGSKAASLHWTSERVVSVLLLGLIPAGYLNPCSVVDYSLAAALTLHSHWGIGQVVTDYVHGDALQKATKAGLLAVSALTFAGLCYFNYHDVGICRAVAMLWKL

SMILES | IQ ([1]; Table 7) | IQ ([1]; Table 8) | IQ ([1]; Table 9) | inhibition at 2.5 µM [2] | IF ([2]; Table 8) | IF ([2]; Table 9) | inhibition at 2.5 µM [3, 7] | inhibition at 2.5 µM [3, 8] | IIIQO [3, 9] | inhibition at 2.5 µM [3, 10] | inhibition [4] | GPDH ([4]; Table 8) | GPDH ([4]; Table 9) | ΔΨm ([5]; Table 8, glutamate) | ΔΨm ([5]; Table 9, glutamate) | inhibition at 2.5 µM [6] | inhibition at 2.5 µM [4]
C=C(C)CN(CC)Cc1cc([N+](=O)[O-])ccc1Cl [Compound 45] | −0.2 | −0.2 | −0.2 | -0.5% | 0.5 | 0.5 | 20.2% | 20.2% | −20.2 | 20.2% | -3.1% | 3.1 | 3.1 | 0.3 | 0.3 |  | 
Cc1ccc2[nH]c(-c3ccc(NC(=O)CCC(=O)O)cc3)nc2c1 [Compound 70] | −0.2 |  |  | 2.2% |  |  |  | 0.4% |  |  | 0% |  |  |  |  | -4.6% | 26%
Fc1ccc(N2CCN(CC(c3ccccc3)c3ccccc3)CC2)cc1 [Compound 39] | 2.7 | 2.7 | 2.7 | 0.9% | −0.9 | −0.9 | 26.8% | 26.8% | −26.8 | 26.8% | 4.7% | −4.7 | −4.7 | 0.5 | 0.5 |  | 
O=C(Nc1ccc(-c2nc3ccccc3[nH]2)cc1)C1CC1 [Compound 66] | −2.8 |  |  | 0.2% |  |  |  | 1.2% |  |  | -1.8% |  |  |  |  | 2.5% | 1.9%
C=C(C)C(=O)Nc1ccc(-c2nc3ccccc3[nH]2)cc1 [Compound 56] | −0.3 |  |  | -0.3% |  |  |  | -1.4% |  |  | 0.8% |  |  |  |  | 2.9% | -1.5%
O=C(O)CCC(=O)Nc1ccc(-c2nc3cc(C(=O)c4ccccc4)ccc3[nH]2)cc1 [Compound 69] | −20.1 |  |  | 1.8% |  |  |  | -5.5% |  |  | 26% |  |  |  |  | 6.3% | 32.1%
CCCCCCNC(=O)CCC(=O)O [Compound 54] | 2.3 |  |  | -8% |  |  |  | -2.5% |  |  | -3.3% |  |  |  |  | -4.4% | -0.9%
COC(=O)CCC(=O)Nc1ccc(C)cc1 [Compound 53] | 0.1 |  |  | -1.3% |  |  |  | -0.8% |  |  | -0.9% |  |  |  |  | 0.3% | 0%
c1ccc2[nH]c(-c3ccc(-c4nc5ccccc5[nH]4)cc3)nc2c1 [Compound 55] | −3.9 |  |  | 1.9% |  |  |  | -3.3% |  |  | -1.5% |  |  |  |  | -1.5% | -3.3%
CCOc1ccc(C(=O)Nc2ccc(-c3nc4ccccc4[nH]3)cc2)cc1 [Compound 64] | −15.3 |  |  | 3.8% |  |  |  | 1% |  |  | 13% |  |  |  |  | -9.8% | -8.2%
O=C(O)CCC(=O)Nc1ccc(Cl)cc1 [Compound 58] | −6.4 |  |  | -0.1% |  |  |  | -0.8% |  |  | 1.2% |  |  |  |  | -1.5% | -0.2%
CC(=O)Nc1ccc(-c2nc3ccccc3[nH]2)cc1 [Compound 59] | −12.3 |  |  | 3% |  |  |  | 1.3% |  |  | 4.4% |  |  |  |  | 5.1% | 1.2%

Source: US20140128352A1, “COMPOUNDS AND METHODS FOR MODULATING MITOCHONDRIAL METABOLISM AND REACTIVE OXYGEN SPECIES PRODUCTION” (Buck Institute for Research on Aging, priority 2012, published 2014)
